Results on two compounds are retold here after PMC11097369 (ACS Omega, 2024).

The IC90 is the concentration needed for an effect of 90%. Read a low IC90 as greater potency.

One data set can be described thus: CFU-GM assay. It counts as cell-based. Particulars: human, human bone marrow mononuclear cells.
The next data set has as its system R/R-PTCL. Particulars: cited from earlier work.
The test system of another data set is SCLC. Particulars: second-line treatment, patients with SCLC; cited from earlier work.

`COc1cc(Nc2ncc3c(n2)-c2ccc(Cl)cc2C(c2c(F)cccc2OC)=NC3)ccc1C(=O)O` [Alisertib] displayed a concentration for an effect of 90% (IC90) in “CFU-GM assay” of 252 nM. In the data set on R/R-PTCL, the “progression-free survival compared to investigator-selected single-agent comparators” value is “failed to improve the progression-free survival”. Turning to `COc1ccc2[nH]c3c(c2c1)CCN[C@]31CS[C@@H]2c3c(OC(C)=O)c(C)c4c(c3[C@H](COC1=O)N1[C@@H]2[C@H]2c3c(cc(C)c(OC)c3O)C[C@@H]([C@@H]1O)N2C)OCO4` [lurbinectedin], the overall response rate in the data set with SCLC is recorded as 35.2%.
